Data taken from ChEMBL document CHEMBL3739292, “Synthesis and Biological Evaluation of Polar Functionalities Containing Nitrodihydroimidazooxazoles as Anti-TB Agents” (ACS Med Chem Lett, 2015).
≈ marks a conversion by molar mass, not a printed value.

Tests used:
[1] = system: Mycobacterium tuberculosis; experiment: Antimicrobial activity against Mycobacterium tuberculosis H37Rv ATCC 27294 after 7 days by resazurin microtiter assay; type: functional; details: H37Rv ATCC 27294, 168 h
[2] = Aqueous solubility of compound at pH7 for 4 hrs by HPLC analysis; type: physicochemical; details: aqueous solution, pH 7
[3] = system: Mycobacterium tuberculosis; experiment: Antimicrobial activity against nonreplicating Mycobacterium tuberculosis 18b by resazurin microtiter assay; type: functional
[4] = Cytotoxicity against human HepG2 cells after 24 hrs by MTT assay; type: cell-based
[5] = Selectivity index, ratio of CC50 for human HepG2 cells to MIC for Mycobacterium tuberculosis H37Rv ATCC 27294; type: toxicity, cell-based; details: read-out: Selectivity Index
[6] = Solubility of compound in phosphate buffer solution at pH 7.4 after 4 hrs by HPLC analysis; type: physicochemical
[7] = Solubility of compound in simulated gastric fluid at pH 1.2 after 4 hrs by HPLC analysis; type: ADME
[8] = Solubility of compound in simulated intestinal fluid at pH 6.8 after 4 hrs by HPLC analysis; type: ADME
[9] = Metabolic stability in rat liver microsomes assessed as compound remaining after 30 mins by LC-MS/MS analysis; type: ADME; details: read-out: Stability
[10] = Cmax in Balb/c mouse at 5 mg/kg, po by LC-MS/MS analysis; type: ADME, organism-based; set-up: dose 5 mg/kg, route oral; details: in vivo
[11] = system: Mus musculus; experiment: (§1) AUC (0 to t) in Balb/c mouse at 5 mg/kg, po by LC-MS/MS analysis; type: ADME, organism-based; details: in vivo
[12] = Tmax in Balb/c mouse at 5 mg/kg, po by LC-MS/MS analysis; type: ADME, organism-based; details: in vivo
[13] = system: Mus musculus; experiment: (§2) Half life in Balb/c mouse at 5 mg/kg, po by LC-MS/MS analysis; type: ADME, organism-based; details: in vivo
[14] = system: Mus musculus; experiment: Volume of distribution in Balb/c mouse at 5 mg/kg, po by LC-MS/MS analysis; type: ADME, organism-based; details: in vivo
[15] = system: Mus musculus; experiment: Toxicity in Balb/c mouse at 25 mg/kg, po once daily for 5 days; type: organism-based; details: in vivo, 120 h
[16] = system: Mus musculus; experiment: Toxicity in Balb/c mouse at 20 mg/kg, po; type: organism-based; details: in vivo
[17] = system: Mus musculus; experiment: Toxicity in Balb/c mouse at 100 mg/kg, po; type: organism-based; details: in vivo
[18] = as §1; type: ADME, organism-based; details: Balb/c, in vivo
[19] = as §2; type: ADME, organism-based; details: Balb/c, in vivo
[20] = Clearance in Balb/c mouse at 5 mg/kg, po by LC-MS/MS analysis; type: ADME, organism-based; details: in vivo
[21] = system: Mycobacterium tuberculosis; experiment: Antitubercular activity against Mycobacterium tuberculosis H37Rv infected in Balb/c mouse assessed as decrease in bacterial load at 25 mg/kg, po once daily for 5 days (reference value: 1.61 LogCFU ); type: functional

SMILES | MIC90 [1] | solubility at 4 h [2] | MIC [3] | further results
C[C@]1(COc2ccc(N3CCN(S(=O)(=O)c4ccccc4)CC3)cc2)Cn2cc([N+](=O)[O-])nc2O1 | 1 µg/mL (≈ 2 µM) | – | – | –
CC(C)(C)c1ccc(NC(=O)Nc2ccc(OC[C@@]3(C)Cn4cc([N+](=O)[O-])nc4O3)cc2)cc1 | 0.09 µg/mL (≈ 0.193 µM) | < 1 µg/mL | – | –
C[C@]1(COc2ccc(-n3cc(COc4ccc(OC(F)(F)F)cc4)nn3)cc2)Cn2cc([N+](=O)[O-])nc2O1 | 0.12 µg/mL (≈ 0.225 µM) | < 1 µg/mL | 4 µg/mL (≈ 7.51 µM) | CC50 at 24 h [4]: > 20 µg/mL; selectivity ratio [5]: > 166; solubility at 4 h [6]: < 1 µg/mL; solubility at 4 h [7]: < 1 µg/mL; solubility at 4 h [8]: < 1 µg/mL; remaining at 0.5 h [9]: 90.8%; Cmax [10]: 540 ng/mL; AUCt [11]: 7428 ng·h/mL; Tmax [12]: 2 h; t1/2 [13]: 4.01 h; Vd [14]: 0.377 L/kg; Activity [15]: Non-toxic; Activity [16]: Non-toxic; Activity [17]: Non-toxic
COc1c(N2CCNC(C)C2)c(F)cc2c(=O)c(C(=O)O)cn(C3CC3)c12 (configuration not stated) [GATIFLOXACIN] | – | – | 1 µg/mL (≈ 2.66 µM) | –
C[C@]1(COc2ccc(S(=O)(=O)N3CCN(c4cccc(Cl)c4)CC3)cc2)Cn2cc([N+](=O)[O-])nc2O1 | 0.83 µg/mL (≈ 1.55 µM) | – | – | –
CCc1ccc(NC(=O)Nc2ccc(OC[C@@]3(C)Cn4cc([N+](=O)[O-])nc4O3)cc2)cc1 | 0.5 µg/mL (≈ 1.14 µM) | < 1 µg/mL | – | –
Cc1ccc(S(=O)(=O)N2CCN(c3ccc(OC[C@@]4(C)Cn5cc([N+](=O)[O-])nc5O4)cc3)CC2)cc1 | 0.5 µg/mL (≈ 0.974 µM) | < 1 µg/mL | – | –
C[C@]1(COc2ccc(NC(=S)Nc3ccc(OC(F)(F)F)cc3)cc2)Cn2cc([N+](=O)[O-])nc2O1 | 0.25 µg/mL (≈ 0.491 µM) | < 1 µg/mL | – | –
C[C@]1(COc2ccc(S(=O)(=O)N3CCOCC3)cc2)Cn2cc([N+](=O)[O-])nc2O1 | 0.37 µg/mL (≈ 0.872 µM) | 20 µg/mL (≈ 47.1 µM) | 1.34 µg/mL (≈ 3.16 µM) | CC50 at 24 h [4]: > 20 µg/mL; selectivity ratio [5]: > 40; solubility at 4 h [6]: 20 µg/mL (≈ 47.1 µM); solubility at 4 h [7]: 20 µg/mL (≈ 47.1 µM); solubility at 4 h [8]: 20 µg/mL (≈ 47.1 µM); remaining at 0.5 h [9]: 99.3%; Cmax [10]: 640 ng/mL; AUC(0-t) [18]: 879 ng·h/mL; Tmax [12]: 0.5 h; half-life [19]: 1.99 h; Vd [14]: 12.97 L/kg; CL/F [20]: 75.2 mL/min/kg; Activity [21]: 1.28 log10CFU; Activity [15]: Non-toxic; Activity [16]: Non-toxic; Activity [17]: Non-toxic
Cc1ccc(NC(=S)Nc2ccc(OC[C@@]3(C)Cn4cc([N+](=O)[O-])nc4O3)cc2)cc1 | 0.83 µg/mL (≈ 1.89 µM) | – | – | –
C[C@]1(COc2ccc(NC(=O)Nc3ccc(C(F)(F)F)cc3)cc2)Cn2cc([N+](=O)[O-])nc2O1 | 0.5 µg/mL (≈ 1.05 µM) | < 1 µg/mL | – | –
COc1ccc(NC(=S)Nc2ccc(OC[C@@]3(C)Cn4cc([N+](=O)[O-])nc4O3)cc2)cc1 | 0.5 µg/mL (≈ 1.1 µM) | 8.66 µg/mL (≈ 19 µM) | > 8 µg/mL | CC50 at 24 h [4]: > 20 µg/mL; selectivity ratio [5]: > 80
CC(C)(C)OC(=O)N1CCN(c2ccc(OC[C@@]3(C)Cn4cc([N+](=O)[O-])nc4O3)cc2)CC1 | 6.67 µg/mL (≈ 14.5 µM) | – | – | –
CC(C)(C)OC(=O)Nc1ccc(OC[C@@]2(C)Cn3cc([N+](=O)[O-])nc3O2)cc1 | 1.34 µg/mL (≈ 3.43 µM) | – | – | –
COc1ccc(NC(=O)Nc2ccc(OC[C@@]3(C)Cn4cc([N+](=O)[O-])nc4O3)cc2)cc1 | 2 µg/mL (≈ 4.55 µM) | – | – | –
Cc1ccccc1NC(=O)Nc1ccc(OC[C@@]2(C)Cn3cc([N+](=O)[O-])nc3O2)cc1 | 1 µg/mL (≈ 2.36 µM) | – | – | –

SMILES | MIC90 [1] | solubility at 4 h [2] | MIC [3] | further results
C[C@]1(COc2ccc(N3CCN(S(=O)(=O)c4ccc(C(F)(F)F)cc4)CC3)cc2)Cn2cc([N+](=O)[O-])nc2O1 | 0.25 µg/mL (≈ 0.44 µM) | < 1 µg/mL | – | –
C[C@]1(COc2ccc(S(=O)(=O)N3CCC(c4ccccc4)CC3)cc2)Cn2cc([N+](=O)[O-])nc2O1 | 0.67 µg/mL (≈ 1.34 µM) | – | – | –
C[C@]1(COc2ccc(S(=O)(=O)N3CCCC3)cc2)Cn2cc([N+](=O)[O-])nc2O1 | 1 µg/mL (≈ 2.45 µM) | – | – | –
C[C@]1(COc2ccc(N3CCN(S(=O)(=O)c4ccc(F)cc4)CC3)cc2)Cn2cc([N+](=O)[O-])nc2O1 | 0.06 µg/mL (≈ 0.116 µM) | 8.33 µg/mL (≈ 16.1 µM) | > 8 µg/mL | CC50 at 24 h [4]: > 20 µg/mL; selectivity ratio [5]: > 333
C[C@]1(COc2ccc(NC(=O)Nc3ccccc3F)cc2)Cn2cc([N+](=O)[O-])nc2O1 | 1.67 µg/mL (≈ 3.91 µM) | – | – | –
C[C@]1(COc2ccc(N3CCC(Oc4ccc(OC(F)(F)F)cc4)CC3)cc2)Cn2cc([N+](=O)[O-])nc2O1 | 0.007 µg/mL (≈ 0.0131 µM) | – | 0.37 µg/mL (≈ 0.692 µM) | CC50 at 24 h [4]: 108 µg/mL (≈ 201 µM)
CCOC(=O)N1CCN(S(=O)(=O)c2ccc(OC[C@@]3(C)Cn4cc([N+](=O)[O-])nc4O3)cc2)CC1 | 4 µg/mL (≈ 8.07 µM) | – | – | –
C[C@]1(COc2ccc(S(=O)(=O)N3CCCCC3)cc2)Cn2cc([N+](=O)[O-])nc2O1 | 0.5 µg/mL (≈ 1.18 µM) | 13.3 µg/mL (≈ 31.6 µM) | 10.7 µg/mL (≈ 25.3 µM) | CC50 at 24 h [4]: > 20 µg/mL; selectivity ratio [5]: > 40
C[C@]1(COc2ccc(NC(=O)Nc3ccc(OC(F)(F)F)cc3)cc2)Cn2cc([N+](=O)[O-])nc2O1 | 0.67 µg/mL (≈ 1.36 µM) | – | – | –
C[C@]1(COc2ccc(NC(=O)Nc3ccc(Cl)cc3)cc2)Cn2cc([N+](=O)[O-])nc2O1 | 0.25 µg/mL (≈ 0.563 µM) | 6.66 µg/mL (≈ 15 µM) | 4 µg/mL (≈ 9.01 µM) | CC50 at 24 h [4]: > 20 µg/mL; selectivity ratio [5]: > 80
CCOc1ccc(NC(=O)Nc2ccc(OC[C@@]3(C)Cn4cc([N+](=O)[O-])nc4O3)cc2)cc1 | 0.5 µg/mL (≈ 1.1 µM) | 6.66 µg/mL (≈ 14.7 µM) | 1 µg/mL (≈ 2.21 µM) | CC50 at 24 h [4]: > 20 µg/mL; selectivity ratio [5]: > 80
C[C@]1(COc2ccc(S(=O)(=O)N3CCN(C(=O)c4ccccc4)CC3)cc2)Cn2cc([N+](=O)[O-])nc2O1 | 4 µg/mL (≈ 7.58 µM) | – | – | –
CCc1ccc(NC(=S)Nc2ccc(OC[C@@]3(C)Cn4cc([N+](=O)[O-])nc4O3)cc2)cc1 | 1 µg/mL (≈ 2.2 µM) | – | – | –
Cc1ccc(NC(=O)Nc2ccc(OC[C@@]3(C)Cn4cc([N+](=O)[O-])nc4O3)cc2)cc1 | 0.21 µg/mL (≈ 0.496 µM) | < 1 µg/mL | – | –
CO[C@H]1/C=C/O[C@@]2(C)Oc3c(C)c(O)c4c(O)c(c(/C=N/N5CCN(C)CC5)c(O)c4c3C2=O)NC(=O)/C(C)=C\C=C\[C@H](C)[C@H](O)[C@@H](C)[C@@H](O)[C@@H](C)[C@H](OC(C)=O)[C@@H]1C [RIFAMPIN] | 0.06 µg/mL (≈ 0.0729 µM) | – | 2 µg/mL (≈ 2.43 µM) | –
COc1ccc(S(=O)(=O)N2CCN(c3ccc(OC[C@@]4(C)Cn5cc([N+](=O)[O-])nc5O4)cc3)CC2)cc1 | 0.5 µg/mL (≈ 0.944 µM) | < 1 µg/mL | – | –
